Measurements published in patent US6043217A, “Amide derivative of amythiamicin” (Zaidan Hojin Biseibutsu Kagaku Kenyu Kai, priority 1996, dated 2000).

Experiments:
[1] = background statement on known amythiamicins; cited from earlier work
[2] = system: Staphylococcus aureus MS 15009/pMS 98; assay: MIC, standard serial dilution method; type: cell-based; details: Muller-Hinton agar medium, 37° C.
Protocol: (§1) The antibacterial activities of the amythiamicin amide derivative of the general formula (I) according to this invention are now concretely described. Compounds No. 1 to No. 11 according to this invention, which were respectively prepared in Examples 1 to 11 hereinafter given, were tested as the test compounds for their minimum inhibitory concentrations (MIC.) (μg/ml) against growth of a variety of test microorganisms by a standard serial dilution method. In the tests, the incubation medium used was Muller-Hinton agar medium and the incubation temperature was 37° C. The test results are shown as antibacterial spectra in the following Tables 2 and 3.

[3] = system: Staphylococcus aureus MS 15009/pMS 99; assay: MIC, standard serial dilution method; type: cell-based; details: Muller-Hinton agar medium, 37° C.
Protocol: as §1

[4] = system: Klebsiella pneumonia PCI 602; assay: MIC, standard serial dilution method; type: cell-based; details: Klebsiella pneumonia PCI 602 (Table 3); Muller-Hinton agar medium, 37° C.
[5] = system: Staphylococcus aureus 209P JC-1; assay: MIC, standard serial dilution method; type: cell-based; details: Muller-Hinton agar medium, 37° C.
[6] = system: Staphylococcus aureus M 133; assay: MIC, standard serial dilution method; type: cell-based; details: Muller-Hinton agar medium, 37° C.
[7] = system: Staphylococcus aureus M 126; assay: MIC, standard serial dilution method; type: cell-based; details: Muller-Hinton agar medium, 37° C.
[8] = system: Staphylococcus aureus MS 15026; assay: MIC, standard serial dilution method; type: cell-based; details: Muller-Hinton agar medium, 37° C.
[9] = system: Staphylococcus aureus MS 15027; assay: MIC, standard serial dilution method; type: cell-based; details: Muller-Hinton agar medium, 37° C.
[10] = system: Staphylococcus epidermidis ATCC 14990; assay: MIC, standard serial dilution method; type: cell-based; details: Muller-Hinton agar medium, 37° C.
[11] = system: Micrococcus luteus ATCC 9341; assay: MIC, standard serial dilution method; type: cell-based; details: Muller-Hinton agar medium, 37° C.
[12] = system: Enterobacterium faecalis W-73; assay: MIC, standard serial dilution method; type: cell-based; details: Muller-Hinton agar medium, 37° C.
[13] = system: Escherichia coli NIHJ JC-2; assay: MIC, standard serial dilution method; type: cell-based; details: Muller-Hinton agar medium, 37° C.
[14] = system: Streptococcus pneumoniae IP 692; assay: MIC, standard serial dilution method; type: cell-based; details: Muller-Hinton agar medium, 37° C.
[15] = system: Streptococcus pneumoniae Type 1; assay: MIC, standard serial dilution method; type: cell-based; details: Muller-Hinton agar medium, 37° C.
[16] = system: Streptococcus pyogenes Cook; assay: MIC, standard serial dilution method; type: cell-based; details: Muller-Hinton agar medium, 37° C.
[17] = system: Branhamella catarrhalis W-0500; assay: MIC, standard serial dilution method; type: cell-based; details: Muller-Hinton agar medium, 37° C.
[18] = system: Branhamella catarrhalis W-0506; assay: MIC, standard serial dilution method; type: cell-based; details: Muller-Hinton agar medium, 37° C.
[19] = system: Haemophilus influenzae 9334; assay: MIC, standard serial dilution method; type: cell-based; details: Muller-Hinton agar medium, 37° C.
[20] = system: Haemophilus influenzae Type b; assay: MIC, standard serial dilution method; type: cell-based; details: Muller-Hinton agar medium, 37° C.

Row | SMILES | solubility in water [1] | Minimum growth inhibitory concentrations (MIC.) [2] | Minimum growth inhibitory concentrations (MIC.) [3] | Minimum growth inhibitory concentrations (MIC.) [4] | Minimum growth inhibitory concentrations (MIC.) [5] | Minimum growth inhibitory concentrations (MIC.) [6] | Minimum growth inhibitory concentrations (MIC.) [7] | Minimum growth inhibitory concentrations (MIC.) [8] | Minimum growth inhibitory concentrations (MIC.) [9] | Minimum growth inhibitory concentrations (MIC.) [10] | Minimum growth inhibitory concentrations (MIC.) [11] | Minimum growth inhibitory concentrations (MIC.) [12] | Minimum growth inhibitory concentrations (MIC.) [13] | Minimum growth inhibitory concentrations (MIC.) [14] | Minimum growth inhibitory concentrations (MIC.) [15] | Minimum growth inhibitory concentrations (MIC.) [16] | Minimum growth inhibitory concentrations (MIC.) [17] | Minimum growth inhibitory concentrations (MIC.) [18] | Minimum growth inhibitory concentrations (MIC.) [19] | Minimum growth inhibitory concentrations (MIC.) [20]
1 | CNC(=O)CC1NC(=O)c2csc(n2)-c2ccc(-c3nc(C(=O)OC)cs3)nc2-c2csc(n2)-c2csc(n2)C(C(C)C)NC(=O)CNC(=O)c2csc(n2)C(C(C)C)NC(=O)c2nc1sc2C (centres unmarked) [Amythiamicin D] | hardly soluble in water |  |  |  |  |  |  |  |  |  |  |  |  |  |  |  |  |  |  | 
2 | CCCCNC(=O)c1csc(-c2ccc3c(n2)-c2csc(n2)-c2csc(n2)C(C(C)C)NC(=O)CNC(=O)c2csc(n2)C(C(C)C)NC(=O)c2nc(sc2C)C(CC(=O)NC)NC(=O)c2csc-3n2)n1 (centres unmarked) [Compound No. 8] |  | > 100 µg/mL | > 100 µg/mL | > 100 µg/mL | > 100 µg/mL | > 100 µg/mL | > 100 µg/mL | > 100 µg/mL | > 100 µg/mL | > 100 µg/mL | 1.56 µg/mL | > 100 µg/mL | > 100 µg/mL | > 100 µg/mL | > 100 µg/mL | > 100 µg/mL | > 100 µg/mL | > 100 µg/mL | > 100 µg/mL | > 100 µg/mL
3 | CNC(=O)CC1NC(=O)c2csc(n2)-c2ccc(-c3nc(C(=O)NCCCO)cs3)nc2-c2csc(n2)-c2csc(n2)C(C(C)C)NC(=O)CNC(=O)c2csc(n2)C(C(C)C)NC(=O)c2nc1sc2C (centres unmarked) [Compound No. 9] |  | 0.39 µg/mL | 0.39 µg/mL | > 100 µg/mL | 0.39 µg/mL | 0.39 µg/mL | 0.39 µg/mL | 0.39 µg/mL | 0.39 µg/mL | 0.78 µg/mL | 0.20 µg/mL | 0.39 µg/mL | > 100 µg/mL | > 100 µg/mL | > 100 µg/mL | > 100 µg/mL | > 100 µg/mL | > 100 µg/mL | > 100 µg/mL | > 100 µg/mL
4 | CNC(=O)CC1NC(=O)c2csc(n2)-c2ccc(-c3nc(C(=O)N[C@@H](CCCNC(=N)N)C(=O)O)cs3)nc2-c2csc(n2)-c2csc(n2)C(C(C)C)NC(=O)CNC(=O)c2csc(n2)C(C(C)C)NC(=O)c2nc1sc2C (some centres unmarked) [Compound No. 10] |  | > 100 µg/mL | > 100 µg/mL | > 100 µg/mL | > 100 µg/mL | > 100 µg/mL | > 100 µg/mL | > 100 µg/mL | > 100 µg/mL | > 100 µg/mL | > 100 µg/mL | > 100 µg/mL | > 100 µg/mL | > 100 µg/mL | > 100 µg/mL | > 100 µg/mL | > 100 µg/mL | > 100 µg/mL | > 100 µg/mL | > 100 µg/mL
5 | CNC(=O)CC1NC(=O)c2csc(n2)-c2ccc(-c3nc(C(=O)N[C@H](CO)CCCNC(=N)N)cs3)nc2-c2csc(n2)-c2csc(n2)C(C(C)C)NC(=O)CNC(=O)c2csc(n2)C(C(C)C)NC(=O)c2nc1sc2C (some centres unmarked) [Compound No. 11] |  | > 100 µg/mL | > 100 µg/mL | > 100 µg/mL | 6.25 µg/mL | > 100 µg/mL | > 100 µg/mL | > 100 µg/mL | > 100 µg/mL | > 100 µg/mL | 100 µg/mL | > 100 µg/mL | > 100 µg/mL | > 100 µg/mL | > 100 µg/mL | > 100 µg/mL | > 100 µg/mL | > 100 µg/mL | > 100 µg/mL | > 100 µg/mL
